System: cucumber powdery mildew fungus (Sphaerotheca fuliginea, a QoI-resistant strain, cytochrome b position 143 glycine to alanine)
Format: in vivo
Conditions: 500 ppm spray on cucumber (SAGAMI HANJIRO); investigated 8 days after inoculation

Compound: Cn1nnn(-c2ccccc2OCc2ccccc2)c1=O [1-[2-(phenylmethoxy)phenyl]-4-methyl-1,4-dihydrotetrazol-5-one]
- area of lesion on the treated plant relative to that on an untreated plant: ≥ 70%
